Experimental data reported in US20240132503A1, “SALT FORM AND CRYSTAL FORM OF PYRAZOLE SUBSTITUTED IMIDAZO[1,2- A]QUINOXALINE DERIVATIVE” (OCUMENSION THERAPEUTICS (SUZHOU) CO., LTD, priority 2021, published 2024).

Columns and labels:
[1] = Solid stability test of crystal form A (influencing factors and accelerated conditions; HPLC purity and XRPD); format: physicochemical
Experimental: All the stability samples were subjected to XRPD detection to detect changes in crystal forms.
About 10 mg of the crystal form was accurately weighed, put in a dry and clean glass bottle, spread into a thin layer, covered with aluminum foil with small pierced holes, and put under conditions of the influencing factor test and accelerated conditions. A sample under sunlight conditions (1200000 Lux visible light, and 200 W ultraviolet light) was put in a transparent glass bottle and fully exposed, and a sample used for XRPD detection was put separately.
After the sample was taken out by a time point, the glass bottle was covered with a lid, sealed with parafilm, and stored in a refrigerator at −20° C. During sample preparation, the sample was taken out of the refrigerator and recovered to room temperature, 10 mL of 80% ACN was added, and the sample was dissolved by ultrasonication for 2 minutes to obtain a solution at a concentration of about 1 mg/mL. A liquid phase was used for sample analysis, and the test result was compared with an initial test result on Day 0.
Preparation of a standard solution on Day 0: About 10 mg of the crystal form was weighed, put into a 10 mL volumetric flask, dissolved in 80% acetonitrile and diluted to the scale.
In addition, all the stability samples were subjected to the HPLC tests.

[2] = biological target: KDR (VEGFR-2) protein kinase (Homo sapiens (Human), UniProt P35968); experiment: In vitro evaluation of inhibitory activity against KDR (VEGFR-2) protein kinase (ADP-Glo kinase assay); format: biochemical
From the text: The KDR Kinase Kit was designed to use Kinase-Glo® MAX as a teat reagent to measure KDR kinase activity, and the IC50 value of the compound was used as an indicator for compound screening and analysis.
ADP-GLO™ Kinase Assay is an assay reaction for measuring adenosine diphosphate formed by the kinase by using a luminescent kinase; and ADP was converted into ATP, that is, conversion into a light signal via Ultra-Glo™ Luciferase. The light signal was positively correlated with the quantity of ADP and kinase activity. Such assay was very suitable for determining the activity of the compound, making the assay ideal for primary screening and a kinase selectivity assay. The ADP-Glo™ Kinase Assay can be used to monitor the activity of almost all ADP-producing enzymes (for example, a kinase or ATPase): • 1) Enzyme, substrate, ATP and inhibitors were diluted in kinase buffer; • 2) 384-well plate: 1 μL of inhibitor or (5% dimethyl sulfoxide solution) 2 μL of KDR enzyme, and 2 μL of substrate/ATP mixture; • 3) The 384-well plate was incubated at room temperature for 60 minutes; • 4) 5 μL of ADP-GLO™ reagent was added; • 5) The 384-well plate was incubated at room temperature for 40 minutes; • 6) 10 μL of kinase test reagent was added; • 7) The 384-well plate was incubated at room temperature for 30 minutes; • 8) Lumination (integration time: 0.5 to 1 second) was recorded. […]

[3] = 40° C., relative humidity 75%, opened, 1 months
[4] = 40° C., relative humidity 75%, opened, 2 months
[5] = 40° C., relative humidity 75%, opened, 3 months
[6] = 60° C., relative humidity 75%, opened, 1 month
[7] = 60° C., relative humidity 75%, opened, 2 months
[8] = Control group kept in the dark, wrapped with tin foil
[9] = High humidity (relative humidity 92.5%, opened), 1 week
[10] = High humidity (relative humidity 92.5%, opened), 2 week
[11] = High temperature (60° C., opened), 1 week
[12] = High temperature (60° C., opened), 2 week
[13] = Visible light + ultraviolet light (ICH condition), visible 1200000 lux·hrs

Sequence of KDR (VEGFR-2) protein kinase (P35968 20-1356): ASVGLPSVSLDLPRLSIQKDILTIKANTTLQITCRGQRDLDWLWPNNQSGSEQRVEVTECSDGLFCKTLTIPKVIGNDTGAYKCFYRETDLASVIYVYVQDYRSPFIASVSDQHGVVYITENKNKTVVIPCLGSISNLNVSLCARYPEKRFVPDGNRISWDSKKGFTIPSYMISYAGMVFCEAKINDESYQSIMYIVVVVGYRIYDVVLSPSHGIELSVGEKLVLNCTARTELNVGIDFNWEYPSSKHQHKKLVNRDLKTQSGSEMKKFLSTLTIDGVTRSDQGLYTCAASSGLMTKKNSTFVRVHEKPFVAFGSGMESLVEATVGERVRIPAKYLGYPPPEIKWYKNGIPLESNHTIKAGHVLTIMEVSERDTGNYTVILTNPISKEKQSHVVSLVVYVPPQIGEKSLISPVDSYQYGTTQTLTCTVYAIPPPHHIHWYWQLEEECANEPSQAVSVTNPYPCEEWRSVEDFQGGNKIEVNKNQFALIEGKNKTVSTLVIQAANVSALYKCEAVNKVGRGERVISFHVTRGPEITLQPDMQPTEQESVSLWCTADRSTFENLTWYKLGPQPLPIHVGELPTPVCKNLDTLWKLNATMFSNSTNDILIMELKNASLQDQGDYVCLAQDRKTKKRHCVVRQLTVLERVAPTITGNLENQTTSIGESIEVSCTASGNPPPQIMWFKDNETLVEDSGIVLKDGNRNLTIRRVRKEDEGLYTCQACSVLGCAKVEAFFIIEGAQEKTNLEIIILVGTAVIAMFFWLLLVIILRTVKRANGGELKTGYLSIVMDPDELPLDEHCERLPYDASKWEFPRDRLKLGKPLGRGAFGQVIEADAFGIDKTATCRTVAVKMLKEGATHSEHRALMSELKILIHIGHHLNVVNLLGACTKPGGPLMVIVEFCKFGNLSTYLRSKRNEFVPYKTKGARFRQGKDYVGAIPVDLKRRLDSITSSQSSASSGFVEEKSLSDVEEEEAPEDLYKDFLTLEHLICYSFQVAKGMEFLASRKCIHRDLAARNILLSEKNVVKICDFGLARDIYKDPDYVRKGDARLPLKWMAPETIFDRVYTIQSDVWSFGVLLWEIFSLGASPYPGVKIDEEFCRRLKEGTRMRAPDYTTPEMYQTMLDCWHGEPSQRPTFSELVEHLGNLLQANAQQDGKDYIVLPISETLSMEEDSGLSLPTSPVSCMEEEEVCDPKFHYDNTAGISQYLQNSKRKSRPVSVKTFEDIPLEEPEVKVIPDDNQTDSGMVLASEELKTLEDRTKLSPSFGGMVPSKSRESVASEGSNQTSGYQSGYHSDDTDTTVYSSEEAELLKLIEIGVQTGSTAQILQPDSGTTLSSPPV

- Crystal form (XRPD) [1, 3]: Crystal form A
- Purity (area %) [1, 3]: 99.12 area %
- Crystal form (XRPD) [1, 4]: Crystal form A
- Purity (area %) [1, 4]: 99.06 area %
- Crystal form (XRPD) [1, 5]: Crystal form A
- Purity (area %) [1, 5]: 99.04 area %
- Crystal form (XRPD) [1, 6]: Crystal form A
- Purity (area %) [1, 6]: 99.15 area %
- Crystal form (XRPD) [1, 7]: Crystal form A
- Purity (area %) [1, 7]: 99.03 area %
- Crystal form (XRPD) [1, 8]: Crystal form A
- Purity (area %) [1, 8]: 99.12 area %
- Crystal form (XRPD) ([1]; Day 0): Crystal form A
- Purity (area %) ([1]; Day 0): 99.05 area %
- Crystal form (XRPD) [1, 9]: Crystal form A
- Purity (area %) [1, 9]: 99.03 area %
- Crystal form (XRPD) [1, 10]: Crystal form A
- Purity (area %) [1, 10]: 99.11 area %
- Crystal form (XRPD) [1, 11]: Crystal form A
- Purity (area %) [1, 11]: 98.99 area %
- Crystal form (XRPD) [1, 12]: Crystal form A
- Purity (area %) [1, 12]: 99.10 area %
- Crystal form (XRPD) [1, 13]: Crystal form A
- Purity (area %) [1, 13]: 99.12 area %
- change in purity and crystal form ([1]; all stability conditions (high temperature, high humidity and sunlight)): no significant change
- chemical stability ([1]; conclusion in words): good chemical stability
- IC50 [2]: 28 nM
- inhibitory activity against KDR (VEGFR-2) ([2]; conclusion in words): good inhibitory activity
Structure (SMILES): c1cn2c(n1)c(Nc1ccc(N3CCOCC3)cc1)nc1ccc(-c3cn[nH]c3)cc12
